In patent EP4595972A1, “PEPTIDE FOR TREATING OR PREVENTING 4R TAUOPATHY” (GemVax & KAEL Co., Ltd., priority 2022, dated 2024):

Experiments:
[1] = target: T1, tau oligomer (Tau-BiFC) (Homo sapiens, UniProt P10636, P618L); assay: Tau-BiFC fluorescent imaging of brain tissues (tau oligomer formation); format: in vivo, mouse
T1 construct: VN173 (BiFC fragment); VC155 (BiFC fragment); expressed in transfected cells; host or cells: brain of transgenic TauP301L-BiFC mice (transgene-expressed)
Source text: (§1) • 1) Experimental method for brain tissue sampling • (1) On day 1, after completing 63 times administration schedule, the mice of TauP301L-BiFC mouse model were anesthetized, followed by preparing heart laparotomy. • (2) Saline was introduced into the heart of each mouse in the TauP301L-BiFC mouse model, followed by removing vivo blood using a perfusion pump machine. • (3) The brain of the mouse was extracted and weighed. • (4) The brain to be used for tissue staining experiment was immersed in 4% FPA solution and fixed for 24 hours. • (5) On day 2, after completing fixation, the brain tissues were immersed in 20% sucrose solution to remove water for 24 hours. • (6) On day 3, the brain tissues were immersed in 30% sucrose solution to remove water for 48 hours. • (7) On day 5, the brain tissues free of water were taken and extra moisture was removed. Then, the brain tissues and a frozen tissue embedding agent (OCT compound) were placed in a prepared mold, followed by freezing the brain tissues as fast as possible while protecting the tissues. The frozen brain tissue-containing mold was stored in a defreezer at -80°C. Thereafter, using a cryostat for frozen fragment, the tissues were cut into a unit thickness of 30 µm and stored in 0.05% sodium azide solution.
• (1) On day 1, a brain tissue sample having a thickness of 30 µm under cryosection was selected for each brain region, immersed in PBS solution, and then washed three times. • (2) A solution of 0.05% Sudan Black B in 70% EtOH was stirred overnight (O/N), and then, particles were filtered through 0.22 µm filter. • (3) The selected brain tissue sample was immersed in distilled water (D.W.), and washed three times for 5 minutes. • (4) The brain tissues were immersed in a prepared 0.05% Sudan Black B solution, followed by staining for 10 minutes. • (5) The brain tissues stained in Sudan black B were immersed in 0.1% PBS-T solution, and washed at an interval of 30 seconds to control a degree of staining. • (6) The tissues were washed in D.W. three times for 5 minutes. • (7) In Hoechst solution at a concentration of 0.2 µg/mL in distilled water, the brain tissues were immersed to conduct nuclei staining for 20 minutes. • (8) The tissues were washed in D.W. three times for 5 minutes. • (9) Tau-BiFC imaging was performed using a slide scanner.
(§2) • (1) In order to obtain fluorescent images of the stained brain tissues, a brain tissue slide was scanned using Zeiss Axio Scan (Zeiss, Oberkochen, Germany). • BiFC fluorescence: λex=460-490 nm, λem=500-550 nm • AT8 fluorescence: λex=620-640 nm, λem=650-700 nm • Hoechst fluorescence: λex=330-375 nm, λem=430-470 nm • (3) For brain tissues per site obtained through imaging, fluorescent value was calculated through Image J software (NIH).

[2] = patients with mild or moderate Alzheimer's disease; most general cause for stopping high-dose LMTM; cited from earlier work
[3] = reported in Kim et al., Exp. Mol. Med. 55, 612-627 (2023); read-out: GI50 (cytotoxicity side effects); cited from earlier work
[4] = target: tau aggregation (Homo sapiens, UniProt P10636); conditions: reported in Kim et al., Exp. Mol. Med. 55, 612-627 (2023); read-out: EC50 (tau aggregation inhibitory section); cited from earlier work
tau aggregation, sequence (P10636 whole entry): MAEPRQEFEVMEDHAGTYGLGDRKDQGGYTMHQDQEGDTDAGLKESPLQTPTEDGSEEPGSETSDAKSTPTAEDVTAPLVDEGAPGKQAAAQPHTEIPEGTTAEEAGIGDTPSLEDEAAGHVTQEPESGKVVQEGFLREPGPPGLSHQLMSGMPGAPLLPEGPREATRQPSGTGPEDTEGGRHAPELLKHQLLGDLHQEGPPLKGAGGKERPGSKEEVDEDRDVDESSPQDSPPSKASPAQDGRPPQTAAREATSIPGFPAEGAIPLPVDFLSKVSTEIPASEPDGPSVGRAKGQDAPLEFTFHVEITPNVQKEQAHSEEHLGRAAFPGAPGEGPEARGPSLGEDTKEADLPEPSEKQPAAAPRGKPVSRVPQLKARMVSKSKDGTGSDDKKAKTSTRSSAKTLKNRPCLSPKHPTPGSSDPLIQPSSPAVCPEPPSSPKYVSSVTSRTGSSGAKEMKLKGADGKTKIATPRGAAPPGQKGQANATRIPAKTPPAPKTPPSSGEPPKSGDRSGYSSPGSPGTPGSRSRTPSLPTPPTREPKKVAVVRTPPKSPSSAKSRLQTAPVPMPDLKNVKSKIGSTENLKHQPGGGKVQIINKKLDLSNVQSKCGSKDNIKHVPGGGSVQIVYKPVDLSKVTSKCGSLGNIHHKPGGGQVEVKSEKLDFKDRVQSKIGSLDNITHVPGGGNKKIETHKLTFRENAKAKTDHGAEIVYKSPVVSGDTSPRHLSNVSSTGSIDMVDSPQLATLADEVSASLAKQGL

[5] = system: TauP301L-BiFC mice; assay: Rota-rod test (motor ability) in 4R TauP301L-BiFC mouse model; format: in vivo
Experimental: • (1) After carrying out adaptation training for 3 days, a behavior experiment was performed on day 4. • (2) 1 hour before the experiment, a time for adaptation of experimental mice in a space where the behavior experiment is conducted, should be ensured. • (3) During the period for adaptation training, each mouse is forced to walk on a treadmill for 360 seconds at a speed of 5 rpm, 15 rpm, 20/25 rpm. Here, an experimental mouse losing a balance and fallen to the floor was forced to walk again. • (4) After the adaptation training, the behavior experiment was conducted by gradually increasing the speed from 5 rpm to 35 rpm for 480 seconds. When the treadmill worked, a time (seconds) taken until the experimental mouse lost the balance and fallen to the floor was measured.
Results of evaluating motor ability improvement efficacy through a Rota-rod test in a 4R TauP301L-BiFC mouse model were shown in Table 4 below and FIG. 2. Using a TauP301L-BiFC mouse model including 7- to 12-month-old mice administered with the drug for 5 months, the experiment was conducted. The results were analyzed through bidirectional ANOVA using Tukey's multiple-comparisons (*p<0.05; **p<0.01; n.s.: Insignificant for vehicle).

[6] = system: AT8 (phospho-Tau S202/T205); assay: AT8 immunofluorescent staining of brain tissues (tau hyperphosphorylation); format: in vivo, mouse
Source text: as §1
• (1) On day 1, a brain tissue sample having a thickness of 30 µm under cryosection was selected for each brain region, immersed in PBS solution, and then washed three times for 10 minutes. • (3) The sample was fixed in 3.7% formaldehyde for 5 minutes. • (4) The sample was washed in PBS solution three times for 10 minutes. • (5) The brain tissue sample was subjected to permeabilization in 0.3% PBS-T solution. • (6) The sample was immersed in 5% BSA in PBS solution for 1 hour for blocking. • (7) The brain tissues were input into 3% BSA in which primary antibody (AT8) was diluted at a ratio of 1:200, 0.1% Tween-20 in PBS solution, followed by overnight (O/N) binding. • (8) On day 2, the brain tissues were immersed in PBS solution, and washed three times for 10 minutes. • (9) The brain tissues were input into 3% BSA in which secondary antibody was diluted at a ratio of 1:500, 0.1% Tween-20 in PBS solution, followed by binding at room temperature for 1 hour. • (10) The brain tissues were immersed in PBS solution, and washed once for 10 minutes. • (11) The brain tissues were immersed in Hoechst (stock conc., 1mg/mL) diluted at a ratio of 1:2000 in PBS solution, followed by nuclei staining. • (12) The brain tissues were immersed in PBS solution, and washed three times for 10 minutes. • (13) Brain tissue fluorescent imaging was performed using a slide scanner.
as §2

[7] = LMTM 15 mg/kg oral vs. vehicle, decrease (in parentheses)
[8] = LMTM 15 mg/kg oral vs. vehicle, decrease (in parentheses), *p<0.05

T1 sequence (P10636 1-441 isoform P10636-8 P301L): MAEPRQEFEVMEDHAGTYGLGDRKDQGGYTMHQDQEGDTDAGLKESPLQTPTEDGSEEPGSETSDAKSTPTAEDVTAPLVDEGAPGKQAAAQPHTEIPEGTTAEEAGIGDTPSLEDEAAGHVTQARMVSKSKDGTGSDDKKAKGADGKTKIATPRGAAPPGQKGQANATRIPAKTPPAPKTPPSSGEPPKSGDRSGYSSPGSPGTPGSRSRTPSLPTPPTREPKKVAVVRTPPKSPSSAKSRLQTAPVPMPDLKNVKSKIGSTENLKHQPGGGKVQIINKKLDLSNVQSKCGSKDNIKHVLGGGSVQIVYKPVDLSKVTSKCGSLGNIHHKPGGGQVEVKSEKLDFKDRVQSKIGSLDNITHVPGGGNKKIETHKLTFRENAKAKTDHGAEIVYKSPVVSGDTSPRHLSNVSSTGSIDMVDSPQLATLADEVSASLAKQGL
T1 sequence (P10636 1-441 isoform P10636-8 P301L): as above

## CN(C)c1ccc2c(c1)Sc1cc(N(C)C)ccc1N2.CS(=O)(=O)O.CS(=O)(=O)O [LMTM]
[1]; [7]
  TauBiFC fluorescent level, Somatosensory cortex: (15 %)
  TauBiFC fluorescent level, Substantia nigra: (26 %)
[1]; [8]
  TauBiFC fluorescent level, Hippocampus: (21 %)*
  TauBiFC fluorescent level, Motor cortex: (27 %)*
[1]; LMTM 15 mpk
  Tau-BiFC fluorescent level as compared to the vehicle group, in words: significantly reduced in the motor cortex, hippocampus and substantia nigra regions
[2]
  most common side effects: most common side effects related to gastrointestinal and urinary system
[3]
  GI50: 6.4 ± 0.3 µM
[4]
  EC50: 2.2 ± 0.2 µM
[5]; LMTM 15 mg/kg oral vs. vehicle, improvement
  Duration (Rota-rod test on 11.9 months): 57%
[5]; LMTM 15 mg/kg vs. vehicle, mice administered 59 times
  exercise performance (Rota-rod treadmill), in words: exercise performance tended to improve, however, did not show a significant difference
[6]; [7]
  AT8 fluorescent level, Somatosensory cortex: (31 %)
  AT8 fluorescent level, Substantia nigra: (16 %)
[6]; [8]
  AT8 fluorescent level, Hippocampus: (28 %)*
  AT8 fluorescent level, Motor cortex: (26 %)*
[6]; LMTM 15 mpk
  AT8 fluorescent level as compared to the vehicle group, in words: significantly reduced in the somatosensory cortex, motor cortex and hippocampus regions
